# From patent US20250179103A1, “6-OXODECAHYDROPYRROLO[1,2-A][1,5]DIAZOCINE AND 6-OXODECAHYDRO-4H-PYRROLO[2,1-D][1,5]THIAZOCINE DERIVATIVES AS STAT3 AND STAT6 MODULATORS FOR THE TREATMENT OF CANCER AND INFLAMMATORY CONDITIONS” (Recludix Pharma, Inc., priority 2022, published 2025)
# Legend:
# [1] = target: T1, Recombinant STAT3 protein (STAT3(G127-I722)) (Homo sapiens, UniProt P40763); test: STAT3 Fluorescence Polarization (FP) Assay; assay type: binding; details: STAT3(G127-I722) 25 nM, probe 5-FAM-GpYLPQTV-NH2 2 nM, 45-minute incubation
# T1 construct: Recombinant STAT3 protein (STAT3(G127-I722))
# T1 sequence (P40763 127-722): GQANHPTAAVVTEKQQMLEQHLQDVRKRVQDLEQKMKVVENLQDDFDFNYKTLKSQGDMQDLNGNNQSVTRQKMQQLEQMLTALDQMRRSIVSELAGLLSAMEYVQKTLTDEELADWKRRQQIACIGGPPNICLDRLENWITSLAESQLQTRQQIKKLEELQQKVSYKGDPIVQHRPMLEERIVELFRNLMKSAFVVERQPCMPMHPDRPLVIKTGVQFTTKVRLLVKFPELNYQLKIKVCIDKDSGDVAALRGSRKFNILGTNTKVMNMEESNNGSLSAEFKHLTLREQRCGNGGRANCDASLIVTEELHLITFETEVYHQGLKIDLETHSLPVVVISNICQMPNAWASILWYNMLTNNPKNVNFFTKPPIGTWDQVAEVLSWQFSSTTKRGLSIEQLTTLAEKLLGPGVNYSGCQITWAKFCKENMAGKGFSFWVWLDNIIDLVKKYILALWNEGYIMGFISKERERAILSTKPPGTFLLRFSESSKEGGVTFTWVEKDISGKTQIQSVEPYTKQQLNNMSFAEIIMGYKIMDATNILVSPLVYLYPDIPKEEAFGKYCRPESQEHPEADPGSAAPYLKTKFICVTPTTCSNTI
# Outline: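 STAT3(G127-I722), 25 nM, was mixed with 2 nM 5-FAM-GpYLPQTV-NH2 probe in HEPES pH 7.4 buffer with 1% DMSO and serially diluted compound. FP (mP) was read after 45 min at room temperature. IC50 came from nonlinear regression.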
# [2] = target: T2, Recombinant STAT6 protein (STAT6(W123-T658)) (Homo sapiens, UniProt P42226); test: STAT6 Fluorescence Polarization (FP) Assay; assay type: binding; details: STAT6(W123-T658) 250 nM, probe 5-FAM-ApYKPFQDLI-NH2 2 nM, 45-minute incubation
# T2 construct: Recombinant STAT6 protein (STAT6(W123-T658))
# T2 sequence (P42226 123-658): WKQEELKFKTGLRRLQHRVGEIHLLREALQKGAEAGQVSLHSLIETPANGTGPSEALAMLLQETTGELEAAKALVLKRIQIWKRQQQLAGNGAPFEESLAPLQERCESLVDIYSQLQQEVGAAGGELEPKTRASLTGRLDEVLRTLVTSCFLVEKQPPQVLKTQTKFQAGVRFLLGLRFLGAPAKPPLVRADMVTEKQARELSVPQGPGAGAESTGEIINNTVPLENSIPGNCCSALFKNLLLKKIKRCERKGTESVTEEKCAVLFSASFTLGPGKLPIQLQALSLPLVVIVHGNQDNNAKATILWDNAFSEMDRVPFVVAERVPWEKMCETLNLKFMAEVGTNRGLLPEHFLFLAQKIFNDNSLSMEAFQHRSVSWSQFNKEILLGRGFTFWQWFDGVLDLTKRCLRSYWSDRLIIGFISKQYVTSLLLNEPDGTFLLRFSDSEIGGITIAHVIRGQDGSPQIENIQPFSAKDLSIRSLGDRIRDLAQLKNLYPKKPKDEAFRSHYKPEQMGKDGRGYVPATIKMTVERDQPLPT
# Outline: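 Displacement of a fluorescent phosphotyrosine peptide (5-FAM-ApYKPFQDLI-NH2, 2 nM) from STAT6(W123-T658) (250 nM), 1% DMSO, pH 7.4 HEPES buffer. After 45 min at room temperature, polarization (mP) was plotted versus log compound concentration and fitted by nonlinear regression to give IC50.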
Compound,IC50 [1],IC50 [2]
"CC(=O)N1CC[C@H]2CC[C@@H](C(=O)N3CC(C#N)C4(CCC4)C3)N2C(=O)[C@@H](NC(=O)c2cc3cc(C(F)(F)P(=O)(O)O)ccc3s2)C1 (stereo partly drawn) [Compound 64, ((2-(((5S,8S,10aR)-3-acetyl-8-(8-cyano-6-azaspiro[3.4]octane-6-carbonyl)-6-oxodecahydropyrrolo[1,2-a][1,5]diazocin-5-yl)carbamoyl)benzo[b]thiophen-5-yl)difluoromethyl)phosphonic acid]",1 to 10 µM,0.3 to 3 µM
"CC(=O)N1CC[C@H]2CC[C@@H](C(=O)N(C)[C@H]3CN(C(C)=O)C[C@@H]3O)N2C(=O)[C@@H](NC(=O)c2cc3cc(C(F)(F)P(=O)(O)O)ccc3s2)C1 [Compound 183, ((2-(((5S,8S,10aR)-3-acetyl-8-(((3S,4S)-1-acetyl-4-hydroxypyrolidin-3-yl)(methyl)carbamoyl)-6-oxodecaohydrpyrrolo[1,2-a][1,5]diazocin-5-yl)carbamoyl)benzo[b]thiophen-5-yl)difluoromethyl)phosphonic acid]",1 to 10 µM,0.3 to 3 µM
"CC(=O)N1CC[C@H]2CC[C@@H](C(=O)N(C)c3ccc(-c4ccccc4)cc3)N2C(=O)[C@@H](NC(=O)c2cc3cc(C(F)(F)P(=O)(O)O)ccc3[nH]2)C1 [Compound 53, ((2-(((5S,8S,10aR)-8-([1,1′-biphenyl]-4-yl(methyl)carbamoyl)-3-acetyl-6-oxodecahydropyrrolo[1,2-a][1,5]diazocin-5-yl)carbamoyl)-1H-indol-5-yl)difluoromethyl)phosphonic acid]",1 to 10 µM,0.3 to 3 µM
"CCN(C)CCCN(C)C(=O)[C@@H]1CC[C@@H]2CCN(C(C)=O)C[C@H](NC(=O)c3cc4cc(C(F)(F)P(=O)(O)O)ccc4[nH]3)C(=O)N21 [Compound 33, ((2-(((5S,8S,10aR)-3-acetyl-8-((3-(ethyl(methyl)amino)propyl)(methyl)carbamoyl)-6-oxodecahydropyrrolo[1,2-a][1,5]diazocin-5-yl)carbamoyl)-1H-indol-5-yl)difluoromethyl)phosphonic acid]",1 to 10 µM,3 to 30 µM
"CC(=O)N1CC[C@H]2CC[C@@H](C(=O)N[C@H]3CN(S(C)(=O)=O)C[C@@H]3O)N2C(=O)[C@@H](NC(=O)c2cc3cc(C(F)(F)P(=O)(O)O)ccc3s2)C1 [Compound 6, ((2-(((5S,8S,10aR)-3-acetyl-8-(((3S,4S)-4-hydroxy-1-(methylsulfonyl)pyrrolidin-3-yl)carbamoyl)-6-oxodecahydropyrrolo[1,2-a][1,5]diazocin-5-yl)carbamoyl)benzo[b]thiophen-5-yl)difluoromethyl)phosphonic Acid]",1 to 10 µM,0.3 to 3 µM
"CC(=O)N1CC[C@H]2CC[C@@H](C(=O)Nc3ccc(OCCCN(C)C)cc3)N2C(=O)[C@@H](NC(=O)c2cc3cc(C(F)(F)P(=O)(O)O)ccc3s2)C1 [Compound 73, ((2-(((5S,8S,10aR)-3-acetyl-8-((4-(3-(dimethylamino)propoxy)phenyl)carbamoyl)-6-oxodecahydropyrrolo[1,2-a][1,5]diazocin-5-yl)carbamoyl)benzo[b]thiophen-5-yl)difluoromethyl)phosphonic acid]",1 to 10 µM,3 to 30 µM
"O=C(N[C@H]1CN(C(=O)OCc2ccccc2)CC[C@H]2CC[C@@H](C(=O)Nc3ccc(-c4ccccc4)cc3)N2C1=O)c1cc2cc(C(F)(F)P(=O)(O)O)ccc2s1 [Compound 252, ((2-(((5S,8S,10aR)-8-([1,1′-biphenyl]-4-ylcarbamoyl)-3-((benzyloxy)carbonyl)-6-oxodecahydropyrrolo[1,2-a][1,5]diazocin-5-yl)carbamoyl)benzo[b]thiophen-5-yl)difluoromethyl)phosphonic acid]",1 to 10 µM,0.3 to 3 µM
"CC(=O)N1CC[C@H]2CC[C@@H](C(=O)N3C[C@@H](C#N)[C@H](c4ccccc4)C3)N2C(=O)[C@@H](NC(=O)c2cc3cc(C(F)(F)P(=O)(O)O)ccc3s2)C1 (single isomer, unassigned) [Compound 52, ((2-(((5S,8S,10aR)-3-acetyl-8-((3S,4R or 3R,4S)-3-cyano-4-phenylpyrrolidine-1-carbonyl)-6-oxodecahydropyrrolo[1,2-a][1,5]diazocin-5-yl)carbamoyl)benzo[b]thiophen-5-yl)difluoromethyl)phosphonic acid]",1 to 10 µM,≤ 0.3 µM

# Results, then the compound that gave them:
IC50 [1],IC50 [2],Compound
0.1 to 1 µM,0.3 to 3 µM,"CC(=O)N1CC[C@H]2CC[C@@H](C(=O)N3CCC(N4CCCS4(=O)=O)C3)N2C(=O)[C@@H](NC(=O)c2cc3cc(C(F)(F)P(=O)(O)O)ccc3s2)C1 (stereo partly drawn) [Compound 78, ((2-(((5S,8S,10aR)-3-acetyl-8-(3-(1,1-dioxidoisothiazolidin-2-yl)pyrrolidine-1-carbonyl)-6-oxodecahydropyrrolo[1,2-a][1,5]diazocin-5-yl)carbamoyl)benzo[b]thiophen-5-yl)difluoromethyl)phosphonic acid]"
0.1 to 1 µM,≤ 0.3 µM,"COC(=O)N1CC[C@H]2CC[C@@H](C(=O)N3C[C@H](c4ccccc4)[C@@H](C#N)C3)N2C(=O)[C@@H](NC(=O)c2cc3cc(C(F)(F)P(=O)(O)O)ccc3s2)C1 (relative stereo) [Compound 250, ((2-(((5S,8S,10aR)-8-((rel-trans)-3-cyano-4-phenylpyrrolidine-1-carbonyl)-3-(methoxycarbonyl)-6-oxodecahydropyrrolo[1,2-a][1,5]diazocin-5-yl)carbamoyl)benzo[b]thiophen-5-yl)difluoromethyl)phosphonic acid]"
0.1 to 1 µM,0.3 to 3 µM,"CC(=O)N1CC[C@H]2CC[C@@H](C(=O)N3CCC(c4cnc5n4CCCC5)C3)N2C(=O)[C@@H](NC(=O)c2cc3cc(C(F)(F)P(=O)(O)O)ccc3s2)C1 (stereo partly drawn) [Compound 81, ((2-(((5S,8S,10aR)-3-acetyl-6-oxo-8-(3-(5,6,7,8-tetrahydroimidazo[1,2-a]pyridin-3-yl)pyrrolidine-1-carbonyl)decahydropyrrolo[1,2-a][1,5]diazocin-5-yl)carbamoyl)benzo[b]thiophen-5-yl)difluoromethyl)phosphonic acid]"
0.1 to 1 µM,0.3 to 3 µM,"C[C@H](CC(=O)N1CC[C@H]2CC[C@@H](C(=O)N3CCCC3)N2C(=O)[C@@H](NC(=O)c2cc3cc(C(F)(F)P(=O)(O)O)ccc3s2)C1)c1ccccc1 [Compound 260, (difluoro(2-(((5S,8S,10aR)-6-oxo-3-((R)-3-phenylbutanoyl)-8-(pyrrolidine-1-carbonyl)decahydropyrrolo[1,2-a][1,5]diazocin-5-yl)carbamoyl)benzo[b]thiophen-5-yl)methyl)phosphonic acid]"
≤ 0.1 µM,3 to 30 µM,"CN1CCN(c2ccc(C(=O)N3CC[C@H]4CC[C@@H](C(=O)N5CC(c6cccnc6)C5)N4C(=O)[C@@H](NC(=O)c4cc5cc(C(F)(F)P(=O)(O)O)ccc5s4)C3)c(Cl)c2)CC1 [Compound 403, ((2-(((5S,8S,10aR)-3-(2-chloro-4-(4-methylpiperazin-1-yl)benzoyl)-6-oxo-8-(3-(pyridin-3-yl)azetidine-1-carbonyl)decahydropyrrolo[1,2-a][1,5]diazocin-5-yl)carbamoyl)benzo[b]thiophen-5-yl)difluoromethyl) phophonic acid]"
